Values quoted from earlier work as cited in patent US20080280973A1, “Laulimalide Analogues as Therapeutic Agents” (priority 2004, published 2008).

Columns and labels:
[1] = test system: multi-drug resistant cell line SKVLB-1
[2] = test system: KB, P388, A549, HT29 and MEL28 cell lines
[3] = test system: HeLa cells, NCI/ADR cells, MDA-MB-435 cell line; conditions: relative to laulimalide; cell line not specified

Compound	IC50 [1]	anti-tumor potency range [2]	fold less potent than laulimalide [3]
C=C1C[C@H](C)C[C@@H]2CC=C[C@@H](C/C=C\C(=O)O[C@H]([C@@H](O)/C=C/[C@@H]3CC(C)=CCO3)C[C@@H]3O[C@H]3[C@@H](O)C1)O2 [Laulimalide, laulimalide]	1200 nM	nanomolar range	
C16-C17-des-epoxy laulimalide [des-epoxy analogue]			approximately 19 fold
